This assay has as its target T1, hSTING (Homo sapiens, UniProt Q86WV6, G230A/H232R/R293Q/R71H).
T1 construct: host or cells: THP1-Dual KO-IFNAR2 cells
Description: STING reporter assay (luciferase) in THP1-Dual KO-IFNAR2 cells stimulated with 2'3'cGAMP. The format is cell-based. As to conditions: 2'3'cGAMP 15 μM, 24 h, luciferase reporter activity. In outline:
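THP1-Dual KO-IFNAR2 cells (2×10E6 cells/mL) exposed to compounds at 0.0017-100 μM final, then stimulated with 2′3′cGAMP (15 μM final) delivered by Lipofectamine 2000 transfection. After 24 h at 37° C, secreted luciferase in supernatant read by QUANTI-Luc luminescence; EC50 calculated.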

We go through 14 compounds from patent publication US20230127839A1, “COMPOUNDS AND COMPOSITIONS FOR TREATING CONDITIONS ASSOCIATED WITH STING ACTIVITY” (IFM Due, Inc., priority 2019, published 2023).

T1 sequence (Q86WV6 whole entry R71H/G230A/H232R/R293Q): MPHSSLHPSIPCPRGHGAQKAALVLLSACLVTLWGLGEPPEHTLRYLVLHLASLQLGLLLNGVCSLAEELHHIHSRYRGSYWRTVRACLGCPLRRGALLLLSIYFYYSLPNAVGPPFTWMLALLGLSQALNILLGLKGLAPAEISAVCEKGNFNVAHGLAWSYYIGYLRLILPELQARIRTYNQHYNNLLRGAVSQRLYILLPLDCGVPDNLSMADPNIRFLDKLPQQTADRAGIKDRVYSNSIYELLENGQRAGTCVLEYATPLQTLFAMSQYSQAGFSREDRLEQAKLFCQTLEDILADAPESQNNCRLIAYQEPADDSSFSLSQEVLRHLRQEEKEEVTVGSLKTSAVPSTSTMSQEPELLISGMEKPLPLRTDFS

`O=C(Nc1cnc(N2CCC(F)(F)CC2)c(Cl)n1)Nc1c[nH]c2ccc(Cl)cc12` [Compound 174, 1-(5-chloro-1H-indol-3-yl)-3-(6-chloro-5-(4,4-difluoropiperidin-1-yl)pyrazin-2-yl)urea] returned an EC50 of 0.04 to 0.2 µM.

Consider `O=C(Nc1cnc(N2CC3(CN(CC(F)(F)F)C3)C2)c(Cl)c1)Nc1c[nH]c2ccccc12` [Compound 250, 1-(5-chloro-6-(6-(2,2,2-trifluoroethyl)-2,6-diazaspiro[3.3]heptan-2-yl)pyridin-3-yl)-3-(1H-indol-3-yl)urea], for which the EC50 fell in the range of 0.2 to 1 µM.

In turn, `CO[C@H]1CCCN(c2ncc(NC(=O)Nc3c[nH]c4cc(F)c(F)cc34)cc2Cl)C1` [Compound 148, (S)-1-(5-chloro-6-(3-methoxypiperidin-1-yl)pyridin-3-yl)-3-(5,6-difluoro-1H-indol-3-yl)urea] registered an EC50 of 0.04 to 0.2 µM.

Turning to `O=C(Nc1cnn(C2CCC(F)(F)CC2)c1)Nc1c[nH]c2cc(F)c(Cl)cc12` [Compound 230, 1-(5-chloro-6-fluoro-1H-indol-3-yl)-3-(1-(4,4-difluorocyclohexyl)-1H-pyrazol-4-yl)urea], the EC50 was in the range of 0.2 to 1 µM.

Consider `O=C(Nc1cnc(N2CC3(C2)CC(F)(F)C3)c(F)c1)Nc1c[nH]c2ccc(Cl)cc12` [Compound 137, 1-(5-chloro-1H-indol-3-yl)-3-(6-(6,6-difluoro-2-azaspiro[3.3]heptan-2-yl)-5-fluoropyridin-3-yl)urea], for which the EC50 lay within 0.04 to 0.2 µM.

As to `CC(CC1CCC1)n1cc(NC(=O)Nc2c[nH]c3ccc(Cl)cc23)cn1` (centres unmarked) [Compound 217, 1-(5-chloro-1H-indol-3-yl)-3-(1-(1-cyclobutylpropan-2-yl)-1H-pyrazol-4-yl)urea], the EC50 was in the range of 0.2 to 1 µM.

Take `O=C(Nc1cnc(N2CCC(F)(F)C2)c(Cl)c1)Nc1c[nH]c2ccc(Cl)cc12` [Compound 243, 1-(5-chloro-1H-indol-3-yl)-3-(5-chloro-6-(3,3-difluoropyrrolidin-1-yl)pyridin-3-yl)urea]: the EC50 fell in the range of 0.04 to 0.2 µM.

Compound `O=C(Nc1cnn(CC2CCC(F)(F)CC2)c1)Nc1c[nH]c2ccc(Cl)cc12` [Compound 222, 1-(5-chloro-1H-indol-3-yl)-3-(1-((4,4-difluorocyclohexyl)methyl)-1H-pyrazo1-4-yl)urea] displayed an EC50 of 0.2 to 1 µM.

`CC1(C)CN(c2ncc(NC(=O)Nc3c[nH]c4ccc(Cl)cc34)cc2Cl)CCO1` [Compound 298, 1-(5-chloro-1H-indol-3-yl)-3-(5-chloro-6-(2,2-dimethylmorpholino)pyridin-3-yl)urea] gave a concentration for a half-maximal effect (EC50) of 0.04 to 0.2 µM.

For `O=C(Nc1ccnc(C2CCN(CC(F)(F)F)CC2)c1)Nc1c[nH]c2cc(F)c(F)cc12` [Compound 213, 1-(5,6-difluoro-1H-indol-3-yl)-3-(2-(1-(2,2,2-trifluoroethyl)piperidin-4-yl)pyridin-4-yl)urea], the EC50 lay within 1 to 5 µM.

Compound `O=C(Nc1cnc(N2CC3(CN(CC(F)(F)F)C3)C2)c(F)c1)Nc1c[nH]c2ccc(Cl)cc12` [Compound 249, 1-(5-chloro-1H-indol-3-yl)-3-(5-fluoro-6-(6-(2,2,2-trifluoroethyl)-2,6-diazaspiro[3.3]heptan-2-yl)pyridin-3-yl)urea] had an EC50 of 0.2 to 1 µM.

The compound `O=C(Nc1ccc(N2CC3(C2)CC(F)(F)C3)nc1)Nc1c[nH]c2ccc(Cl)cc12` [Compound 155, 1-(5-chloro-1H-indol-3-yl)-3-(6-(6,6-difluoro-2-azaspiro[3.3]heptan-2-yl)pyridin-3-yl)urea] gave an EC50 of 0.04 to 0.2 µM.

Regarding `O=C(Nc1cnn(C2CC3(C2)CC(F)(F)C3)c1)Nc1c[nH]c2ccc(Cl)cc12` [Compound 234, 1-(5-chloro-1H-indol-3-yl)-3-(1-(6,6-difluorospiro[3.3]heptan-2-yl)-1H-pyrazo1-4-yl)urea], the EC50 was 0.04 to 0.2 µM.

The compound `O=C(Nc1cnc(N2CCN(CC(F)(F)F)CC2)c(Cl)c1)Nc1c[nH]c2ccc(Cl)cc12` [Compound 126, 1-(5-chloro-1H-indol-3-yl)-3-(5-chloro-6-(4-(2,2,2-trifluoroethyl)piperazin-1-yl)pyridin-3-yl)urea] gave an EC50 of 0.04 to 0.2 µM.
